Laboratory results: patent US20200383906A1 (Evestra, Inc., priority 2019, published 2020)
Entries after “also recorded” stand apart in the source; their conditions may differ. Like-named read-outs stand apart in the source and are kept apart here.

What was measured:
[1] = young women, 2.0 and 4.0 mg orally; cited from earlier work
[2] = human, cited from earlier work
SHBG = settings: women, entire range of tested doses; cited from earlier work
ovulation = assay: Clinical study of vaginal rings: ovulation inhibition, follicular maturation; format: in vivo, women; settings: used release rate of estriol alone
Procedure: Testing of three vaginal ring prototypes (Device 1, Device 2, and Device 3, described above) in 12 women as preformed. The expected average release rate per day of each device is described in Table 2. Vaginal ring (VR) insertion was performed after pill cycle completion and menstrual bleeding. Observation of a VR over a period of 21 days. Follow-up after removal of the VR. All VR variants tested inhibit ovulation. Ovulation inhibition persisted for more than 7 days after removal of the rings. Signs of follicular maturation at the start of treatment (higher oestradiol levels) disappear during treatment. The effect reflects inhibition of follicular maturation. For the most part, there were no bleeding events during treatment at all and, where they did occur, only to a very small extent (“spotting”). Withdrawal bleeding was observed only after the highest trimegestone dosage.
The course of the estradiol levels in the circulation reflects follicular maturation in the ovary. FIG. 5 depicts the individual serum concentrations of estradiol during single vaginal application of Device 3. […] After removal of the vaginal ring, the estradiol values increase starting from baseline. This increase reflects follicular maturation. […] FIG. 6 depicts the individual serum concentrations of progesterone during single vaginal application of Device 3. […]

ovine genital organs = assay: Experiments in sheep: estrogenic effect of estriol under trimegestone; format: in vivo; settings: on trimegestone
Source text: This estrogenic effect in the genital tract in the presence of a progestogen leads to prevention of spotting and intermenstrual bleeding in humans. Such bleedings on the “pill” are an expression of an endometrial estrogen deficiency.

ovariectomized rodents = settings: parenteral administration; cited from earlier work
estrogen receptor ERß = estrogen receptor ERß (Homo sapiens, UniProt Q92731); settings: cited from earlier work
Chain of estrogen receptor ERß (Q92731 whole entry): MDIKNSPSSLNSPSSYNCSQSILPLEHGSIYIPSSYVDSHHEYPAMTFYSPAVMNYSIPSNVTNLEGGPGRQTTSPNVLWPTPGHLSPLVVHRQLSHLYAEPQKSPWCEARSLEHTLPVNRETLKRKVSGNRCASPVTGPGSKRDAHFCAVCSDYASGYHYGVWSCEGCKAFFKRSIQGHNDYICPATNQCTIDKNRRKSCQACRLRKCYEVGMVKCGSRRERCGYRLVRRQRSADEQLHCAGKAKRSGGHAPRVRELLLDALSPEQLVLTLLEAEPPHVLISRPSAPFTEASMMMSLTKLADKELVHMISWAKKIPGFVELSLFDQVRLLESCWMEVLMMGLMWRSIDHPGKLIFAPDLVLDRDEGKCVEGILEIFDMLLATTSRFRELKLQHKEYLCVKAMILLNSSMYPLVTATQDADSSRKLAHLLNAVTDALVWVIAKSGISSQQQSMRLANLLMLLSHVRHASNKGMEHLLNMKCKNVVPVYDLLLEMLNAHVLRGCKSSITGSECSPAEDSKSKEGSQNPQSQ

C[C@]12CC[C@@H]3c4ccc(O)cc4CC[C@H]3[C@@H]1CC[C@@H]2O [Estradiol-17ß]
Oral bioavailability [1]: 4.9+/−5%

C#C[C@]1(O)CC[C@H]2[C@@H]3CCc4cc(O)ccc4[C@H]3CC[C@@]21C [EE, 17α-ethinyl estradiol]
Oral bioavailability ([2]; oral vs intravenous): about 40%
First pass effect ([2]; oral): 60%

C[C@]12CC[C@@H]3c4ccc(O)cc4CC[C@H]3[C@@H]1C[C@@H](O)[C@@H]2O [estriol]
Changes in surrogate parameter SHBG (SHBG): no relevant changes were seen
Levels of FSH and LH (ovulation): decreased
Estrogenic effect of estriol in the genital tract in the presence of trimegestone (ovine genital organs): is not inhibited; also recorded: are not attenuated
Estrogenic potency compared with estradiol (ovariectomized rodents): about factor ten weaker
Binding with ERß compared with estradiol (estrogen receptor ERß): weaker and less stable binding
